Experimental data reported in patent publication US20200009118A1, “COMPOSITIONS AND METHODS FOR THE TREATMENTOF NEURODEGENERATIVE AND OTHER DISEASES” (Glialogix, Inc., priority 2017, published 2020).

Tested on: 2D2-TCR MOG (2D2) mice
Test: 2D2 mouse model of optic neuritis, myelin staining of the optic nerve
Type: in vivo
Settings: for Number of animals, average myelin content score Low / Number of animals, average myelin content score high / Number of animals, average myelin content score moderate: sulfasalazine 200 mg/kg or memantine 5 mg/kg IP BID
Excerpt: This model serves as an inducible model of optic neuritis with a high rate of penetrance. The development of optic neuritis was monitored by animal observation and histopathology.
Female 2D2 (strain C57BL/6-Tg(Tcra2D2,Tcrb2D2)1Kuch/J) and WT mice (C57BL/6) were purchased from The Jackson Laboratory. Each cohort size was 14 animals. Mice were delivered to Ophthy-DS (Kalamazoo, Mich.) under the supervision of Renovo Neural (Cleveland, Ohio) at 8-12 weeks of age and then acclimated for an additional 4 weeks before beginning the experiment. Animals were housed in pathogen-free, individually-ventilated, enriched cages on a 12 h:12 h light:dark cycle with food and water ad libitum. Mice were monitored daily for welfare and symptoms of optic neuritis.
After 4 weeks of acclimation, animals were randomized by weight into 4 groups of 14 animals each. To induce optic neuritis, 200 ng of Pertussis toxin was injected into the 2D2 animals on days 1 and 3 as described by Guan et al. Dosing of vehicle or treatment compounds began at day 1. The four cohorts are: • (1) WT mice (C57BL/6) treated with vehicle (200 μl saline IP, BID). This cohort serves as a control for the readouts of optic neuritis disease. • (2) 2D2 mice vehicle treated with vehicle (200 μl saline IP, BID). […] The memantine-treated group served as a control for anti-glutamatergic therapy in the 2D2 model of optic neuritis.
On day 30, animals were euthanized and perfused. Optic nerves and retinas were dissected out and embedded in paraffin and sections mounted on slides. 5-7 sections of the optic nerve (from one eye) from ten animals in each cohort were stained by Toluidine Blue. Histopathological analysis of the slides and quantitation of the myelin staining intensity was performed blinded by a board-certified pathologist, Dr. Igor Polyakov (Minneapolis, Minn.). Staining intensity of each slide was graded as either low, moderate or high. Both peripheral and central sections of the optic nerve were graded. The intensity of the myelin staining between the cohorts on a per section and a per animal basis was compared using chi-square and Fishers' exact test with a p<0.05 considered significant.
On a per animal basis, this yielded 20 scores per cohort: average score per section×2 scores per animal (peripheral or central)×10 animals per cohort. On a per section basis, this yielded approximately 110 score per cohort: score per section×5-7 sections per animal×2 scores per section (peripheral or central)×10 animals per cohort.

[1] = Total (central + peripheral, 20 scores), day 30
[2] = per section basis, Central Region, day 30
[3] = per section basis, Peripheral Region, day 30
[4] = per section basis, Total, day 30

**Q.** For `O=C(O)c1cc(/N=N/c2ccc(S(=O)(=O)Nc3ccccn3)cc2)ccc1O` [Sulfasalazine, 2-hydroxy-5-[(E)-2-{4-[(pyridin-2-yl)sulfamoyl]phenyl}diazen-1-yl]benzoic acid], which “Number of animals, average myelin content score Low” value (Central Region, day 30) is on record?
**A.** The value was 0.

**Q.** And the “Number of animals, average myelin content score high” value (Central Region, day 30)?
**A.** Its value is 4.

**Q.** What about the “Number of animals, average myelin content score moderate” value (Central Region, day 30) of the same molecule?
**A.** The value was 6.

**Q.** And the “Number of animals, average myelin content score Low” value (Peripheral Region, day 30)?
**A.** Its value is 1.

**Q.** And the “Number of animals, average myelin content score high” value (Peripheral Region, day 30)?
**A.** The value was 4.

**Q.** What about the “Number of animals, average myelin content score moderate” value (Peripheral Region, day 30) of the same molecule?
**A.** Its value is 5.

**Q.** What about the “Number of animal scores, myelin content High” value [1] of the same molecule?
**A.** The value was 8.

**Q.** What about the “Number of animal scores, myelin content Low” value [1] of the same molecule?
**A.** The value was 1.

**Q.** And the “Number of animal scores, myelin content Moderate” value [1]?
**A.** The value was 11.

**Q.** And the “myelin content compared to the vehicle-treated 2D2 animals” value (optic nerve, day 30)?
**A.** The value was “highly significant increase in myelin content”.

**Q.** What about the “Number of sections, myelin content Low” value [2] of the same molecule?
**A.** The value was 0.

**Q.** And the “Number of sections, myelin content high” value [2]?
**A.** The value was 19.

**Q.** What about the “Number of sections, myelin content moderate” value [2] of the same molecule?
**A.** Its value is 38.

**Q.** And the “Number of sections, myelin content Low” value [3]?
**A.** The value was 8.

**Q.** And the “Number of sections, myelin content high” value [3]?
**A.** Its value is 21.

**Q.** And the “Number of sections, myelin content moderate” value [3]?
**A.** Its value is 28.

**Q.** And the “Number of section scores, myelin content High” value [4]?
**A.** The value was 40.

**Q.** And the “Number of section scores, myelin content Low” value [4]?
**A.** Its value is 8.

**Q.** What about the “Number of section scores, myelin content Moderate” value [4] of the same molecule?
**A.** The value was 66.

**Q.** What about the “Percent scores, Myelin content-Total High” value (per-animal basis) of the same molecule?
**A.** The value was 40%.

**Q.** What about the “Percent scores, Myelin content-Total Low” value (per-animal basis) of the same molecule?
**A.** The value was 5%.

**Q.** What about the “Percent scores, Myelin content-Total Moderate” value (per-animal basis) of the same molecule?
**A.** Its value is 55%.

**Q.** What about the “Percent scores, Myelin content-Total High” value (per-section basis) of the same molecule?
**A.** The value was 35%.

**Q.** What about the “Percent scores, Myelin content-Total Low” value (per-section basis) of the same molecule?
**A.** The value was 7%.

**Q.** What about the “Percent scores, Myelin content-Total Moderate” value (per-section basis) of the same molecule?
**A.** The value was 58%.
